Test results: ChEMBL document CHEMBL1201862, “PubChem BioAssay data set” (2004)
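Cells were grown in 96-well plates and exposed to each compound for 48 hours at five concentrations; endpoints were interpolated linearly between bracketing concentrations, or set to the highest concentration if not reached. At the GI50, growth is halved.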 The source made the active and inactive calls. Rule as the data show it: active = GI50 up to about 1.1 µM and inactive = higher.

What was measured:
Assay in all cases: NCI tumour cell line growth inhibition, 48 h
SF-539 = test system: SF-539
SW-620 = test system: SW-620
HOP-62 = test system: HOP-62
SNB-19 = test system: SNB-19
OVCAR-4 = test system: OVCAR-4
OVCAR-8 = test system: OVCAR-8
RXF 393 = test system: RXF 393
SK-MEL-28 = test system: SK-MEL-28
MOLT-4 = test system: MOLT-4
OVCAR-3 = test system: OVCAR-3
SNB-75 = test system: SNB-75
KM12 = test system: KM12
T47D = test system: T47D
HOP-92 = test system: HOP-92
SK-MEL-5 = test system: SK-MEL-5
IGROV-1 = test system: IGROV-1
CAKI-1 = test system: CAKI-1
HCC 2998 = test system: HCC 2998
NCI-H226 = test system: NCI-H226
DU-145 = test system: DU-145
ACHN = test system: ACHN
Hs-578T = test system: Hs-578T
COLO 205 = test system: COLO 205
OVCAR-5 = test system: OVCAR-5
NCI-H522 = test system: NCI-H522
Malme-3M = test system: Malme-3M
BT-549 = test system: BT-549
786-0 = test system: 786-0
SK-MEL-2 = test system: SK-MEL-2
NCI-H23 = test system: NCI-H23
HCT-15 = test system: HCT-15
TK-10 = test system: TK-10
HT-29 = test system: HT-29
CCRF-CEM = test system: CCRF-CEM
MDA-N = test system: MDA-N
A498 = test system: A498
K562 = test system: K562
PC-3 = test system: PC-3
U-251 = test system: U-251
NCI-H460 = test system: NCI-H460
A549 = test system: A549
MDA-MB-231 = test system: MDA-MB-231
UACC-62 = test system: UACC-62
UACC-257 = test system: UACC-257
MCF7 = test system: MCF7
NCI/ADR-RES = test system: NCI/ADR-RES
SF-268 = test system: SF-268
HCT-116 = test system: HCT-116
M14 = test system: M14
UO-31 = test system: UO-31
EKVX = test system: EKVX
SF-295 = test system: SF-295
LOX IMVI = test system: LOX IMVI
SK-OV-3 = test system: SK-OV-3
SN12C = test system: SN12C
SR = test system: SR
MDA-MB-435 = test system: MDA-MB-435
HL-60 = test system: HL-60
RPMI-8226 = test system: RPMI-8226

Compound: CC(C)C(C/C=C1/CC(CO)(COC(=O)C2CCCCC2)OC1=O)C(C)C (centres undefined)
- GI50 (SF-539): 14.2 µM (inactive)
- GI50 (SW-620): 22.3 µM (inactive)
- GI50 (HOP-62): 11.7 µM (inactive)
- GI50 (SNB-19): 15 µM (inactive)
- GI50 (OVCAR-4): 19.8 µM (inactive)
- GI50 (OVCAR-8): 17.7 µM (inactive)
- GI50 (RXF 393): 21.5 µM (inactive)
- GI50 (SK-MEL-28): 18.6 µM (inactive)
- GI50 (MOLT-4): 17.8 µM (inactive)
- GI50 (OVCAR-3): 18.5 µM (inactive)
- GI50 (SNB-75): 13.8 µM (inactive)
- GI50 (KM12): 21.1 µM (inactive)
- GI50 (T47D): 21.3 µM (inactive)
- GI50 (HOP-92): 13.6 µM (inactive)
- GI50 (SK-MEL-5): 18.3 µM (inactive)
- GI50 (IGROV-1): 19.1 µM (inactive)
- GI50 (CAKI-1): 15.2 µM (inactive)
- GI50 (HCC 2998): 26.1 µM (inactive)
- GI50 (NCI-H226): 21.4 µM (inactive)
- GI50 (DU-145): 13.2 µM (inactive)
- GI50 (ACHN): 13.3 µM (inactive)
- GI50 (Hs-578T): 16.7 µM (inactive)
- GI50 (COLO 205): 5.94 µM (inactive)
- GI50 (OVCAR-5): 18.7 µM (inactive)
- GI50 (NCI-H522): 17.3 µM (inactive)
- GI50 (Malme-3M): 17.3 µM (inactive)
- GI50 (BT-549): 25.2 µM (inactive)
- GI50 (786-0): 12.4 µM (inactive)
- GI50 (SK-MEL-2): > 100 µM (inactive)
- GI50 (NCI-H23): 16.6 µM (inactive)
- GI50 (HCT-15): 21.6 µM
- GI50 (TK-10): 16.8 µM (inactive)
- GI50 (HT-29): 27.9 µM (inactive)
- GI50 (CCRF-CEM): 17.2 µM (inactive)
- GI50 (MDA-N): 19.1 µM (inactive)
- GI50 (A498): 20.4 µM (inactive)
- GI50 (K562): 6.79 µM (inactive)
- GI50 (PC-3): 17.1 µM (inactive)
- GI50 (U-251): 18.3 µM (inactive)
- GI50 (NCI-H460): 20.2 µM (inactive)
- GI50 (A549): 12.5 µM (inactive)
- GI50 (MDA-MB-231): 17 µM (inactive)
- GI50 (UACC-62): 89.9 µM (inactive)
- GI50 (UACC-257): 26.9 µM (inactive)
- GI50 (MCF7): 18.7 µM (inactive)
- GI50 (NCI/ADR-RES): 21.3 µM (inactive)
- GI50 (SF-268): 17.6 µM (inactive)
- GI50 (HCT-116): 17.5 µM (inactive)
- GI50 (M14): 17.3 µM (inactive)
- GI50 (UO-31): 17.7 µM (inactive)
- GI50 (EKVX): 20 µM (inactive)
- GI50 (SF-295): 14.2 µM (inactive)
- GI50 (LOX IMVI): 14.2 µM (inactive)
- GI50 (SK-OV-3): > 100 µM (inactive)
- GI50 (SN12C): 16.8 µM (inactive)
- GI50 (SR): 28 µM (inactive)
- GI50 (MDA-MB-435): 34.7 µM (inactive)

Compound: O=C(CCc1ccc(O)c(O)c1)NCCc1cc(O)cc(O)c1
- GI50 (SF-539): > 100 µM (inactive)
- GI50 (SW-620): > 100 µM (inactive)
- GI50 (HOP-62): > 100 µM (inactive)
- GI50 (SNB-19): > 100 µM (inactive)
- GI50 (OVCAR-8): > 100 µM (inactive)
- GI50 (RXF 393): > 100 µM (inactive)
- GI50 (SK-MEL-28): > 100 µM (inactive)
- GI50 (MOLT-4): > 100 µM (inactive)
- GI50 (OVCAR-3): > 100 µM (inactive)
- GI50 (SNB-75): > 100 µM (inactive)
- GI50 (KM12): > 100 µM (inactive)
- GI50 (T47D): > 100 µM (inactive)
- GI50 (HOP-92): > 100 µM (inactive)
- GI50 (SK-MEL-5): > 100 µM (inactive)
- GI50 (IGROV-1): > 100 µM (inactive)
- GI50 (CAKI-1): > 100 µM (inactive)
- GI50 (HCC 2998): > 100 µM (inactive)
- GI50 (NCI-H226): > 100 µM (inactive)
- GI50 (HL-60): > 100 µM (inactive)
- GI50 (DU-145): > 100 µM (inactive)
- GI50 (ACHN): > 100 µM (inactive)
- GI50 (Hs-578T): > 100 µM (inactive)
- GI50 (COLO 205): > 100 µM (inactive)
- GI50 (RPMI-8226): > 100 µM (inactive)
- GI50 (OVCAR-5): > 100 µM (inactive)
- GI50 (NCI-H522): 71 µM (inactive)
- GI50 (BT-549): > 100 µM (inactive)
- GI50 (786-0): > 100 µM (inactive)
- GI50 (SK-MEL-2): > 100 µM (inactive)
- GI50 (NCI-H23): > 100 µM (inactive)
- GI50 (HCT-15): > 100 µM
- GI50 (TK-10): > 100 µM (inactive)
- GI50 (HT-29): > 100 µM (inactive)
- GI50 (CCRF-CEM): 29.2 µM (inactive)
- GI50 (MDA-N): 23.8 µM (inactive)
- GI50 (A498): > 100 µM (inactive)
- GI50 (K562): 25.7 µM (inactive)
- GI50 (PC-3): > 100 µM (inactive)
- GI50 (U-251): > 100 µM (inactive)
- GI50 (NCI-H460): > 100 µM (inactive)
- GI50 (A549): > 100 µM (inactive)
- GI50 (MDA-MB-231): > 100 µM (inactive)
- GI50 (UACC-62): > 100 µM (inactive)
- GI50 (UACC-257): > 100 µM (inactive)
- GI50 (MCF7): 66.8 µM (inactive)
- GI50 (NCI/ADR-RES): > 100 µM (inactive)
- GI50 (SF-268): > 100 µM (inactive)
- GI50 (HCT-116): > 100 µM (inactive)
- GI50 (M14): > 100 µM (inactive)
- GI50 (UO-31): 63.5 µM (inactive)
- GI50 (EKVX): > 100 µM (inactive)
- GI50 (SF-295): > 100 µM (inactive)
- GI50 (LOX IMVI): 46 µM (inactive)
- GI50 (SK-OV-3): > 100 µM (inactive)
- GI50 (SN12C): > 100 µM (inactive)
- GI50 (SR): > 100 µM (inactive)
- GI50 (MDA-MB-435): 24.8 µM (inactive)
